{"source": "patent US11433086B2", "about": "“Combination of T-cell checkpoint inhibitors with inhibitors of e-selectin or CXCR4, or with heterobifunctional inhibitors of both E-selectin and CXCR4” (GlycoMimetics, Inc., priority 2016, dated 2022)", "system": "subcutaneous CT26.WT carcinoma xenografts", "test": "Anti-cancer activity against subcutaneous CT26.WT carcinoma in Balb/c mice (tumor growth delay, response status)", "assay_type": "in vivo", "set-up": "key to Tumor Growth Delay, statistical comparison vs G1 (Vehicle (Saline)) / Tumor Growth Delay, statistical comparison vs G2 (GMI-1359) / Tumor Growth Delay, statistical comparison vs G3 (anti KLH; Rat IgG2b, LTF-2) / Tumor Growth Delay, statistical comparison vs G4 (anti-mPD-L1) / Tumor Growth Delay, statistical comparison vs G5 (GMI-1359 + anti KLH; Rat IgG2b, LTF-2) / Tumor Growth Delay, statistical comparison vs G6 (GMI-1359 + anti-mPD-L1) / Tumor Growth Delay, statistical comparison vs G7 (Vehicle (Saline)): + = P < 0.05; NS = Nonsignificant", "experimental": "The anti-cancer activity of an anti-mPD-L1 antibody (10F.9G2) and GMI-1359 was compared to a rat isotype control antibody against indeterminate subcutaneous CT26.WT carcinoma xenografts in female Balb/c mice. An immune profile of each mouse was determined by sampling tumors and spleens, staining for several markers of an active immune response, and detecting the levels of these markers via flow cytometry. Flow cytometry markers included: T-Cells (CD4^+ and CD8^+), Regulatory T-Cells (Tregs). (CD4^+/CD25^+/FoxP3^+), MDSCs (CD11b^+/Gr1^+) and co-expression of CCR7^+ and CD62^+ added to the existing CD4/CD8 panel.\nCT26.WT cells were grown in RPMI 1640 medium which was modified with 1 mM Na pyruvate, 10 mM HEPES, 2.5 g/L glucose and supplemented with 10% nonheat-inactivated Fetal Bovine Serum (FBS) and 1% 100X Penicillin/Streptomycin/L-Glutamine (PSG). The growth environment was maintained in an incubator with a 5% CO2 atmosphere at 37° C.\nWhen expansion was complete, the cells were trypsinized using 0.25% trypsin-EDTA solution. Following cell detachment, the trypsin was inactivated by dilution with complete growth medium and any clumps of cells were separated by pipetting. The cells were centrifuged at 200 rcf for 8 minutes at 4° C., the supernatant was aspirated, and the pellet was re-suspended in cold Dulbecco's Phosphate Buffered Saline (DPBS) by pipetting. An aliquot of the homogeneous cell suspension was diluted in a trypan blue solution and counted using a Luna automated cell counter. The preimplantation cell viability was 92%. The cell suspension was centrifuged at 200 rcf for 8 minutes at 4° C. The supernatant was aspirated and the cell pellet was re-suspended in cold serum-free medium to generate a final concentration of 2.50E+06 trypan-excluding cells/mi. The cell suspension was maintained on wet ice during implantation. Following implantation, an aliquot of the remaining cells was diluted with a trypan blue solution and counted to determine the post-implantation cell viability (91%).\nTest animals were implanted subcutaneously, high in the axilla (just under the fore limb) on Day 0 with 5.00E+05 cells in 0.2 ml of serum-free medium using a 27-gauge needle and syringe.\nAll mice were sorted into study groups based on body weights such that the mean body weights in each group was within 10% of the overall mean. Treatment began on Day 3.\nGMI-1359 was dosed intraperitoneally at 40 mg/kg, every day for 20 days (Days 3-22) and every day for 12 days (Days 3-14) for Groups 2 and 8, respectively.\nAnti-KLH; Rat IgG2b, LTF-2 was dosed intraperitoneally at 10 mg/kg, every 3 days for 2 treatments, with 3 days off for 2.5 weeks (Days 3, 6, 10, 13 and 17) for Group 3. Group 9 was dosed intraperitoneally at 10 mg/kg, every 3 days for 2 treatments, with 3 days off for 2 weeks (Days 3, 6, 10 and 13).\nGroups 4 and 10: Anti-mPD-L1, 10F.9G2 was dosed intraperitoneally at 10 mg/kg, every 3 days for 2 treatments, with 3 days off for 2.5 weeks (Days 3, 6, 10, 13 and 17) for Group 4.\nGroup 10 was dosed intraperitoneally at 10 mg/kg, every 3 days for 2 treatments, with 3 days off for 2 weeks (Days 3, 6, 10 and 13).\nGMI-1359 was dosed in combination with anti-KLH; Rat IgG2b, LTF intraperitoneally at 40 mg/kg and 10 mg/kg, respectively. In Group 5, GMI-1359 was dosed once a day for 20 days (Days 3-22) and anti-KLH; Rat IgG2b was given every 3 days for 2 treatments, with 3 days off for 2.5 weeks (Days 3, 6, 10, 13 and 17). In Group 11, GMI-1359 was dosed once a day for 12 days (Days 3-14) and anti-KLH; Rat IgG2b was dosed every 3 days for 2 treatments, with 3 days off for 2 weeks and (Days 3, 6, 10 and 13). On days when both compounds were dosed, GMI-1359 was given first and then anti-KLH; Rat IgG2b, LTF was given within minutes thereafter.\nGroups 6 and 12: GMI-1359 and anti-mPD-L1, 10F.9G2 were dosed in a combination regimen intraperitoneally at 40 mg/kg and 10 mg/kg, respectively. […]", "key": {"[1]": {"conditions": "listed as groups G8-G12 (sampling groups)"}, "[2]": {"conditions": "printed directly after the Group 8 / Group 12 values, group not named"}}, "data": [{"molecule": "CCC1CC(C(=O)NCCNCc2ccc(CN3CCCNCCNCCCNCC3)c(Br)c2)CC(OC2OC(CO)C(O)C(O[C@@H](CC3CCCCC3)C(=O)O)C2NC(C)=O)C1OC1OC(C)C(O)C(O)C1O", "note": "(stereo partly drawn) [GMI-1359]", "values": [{"measurement": "disease status of the group", "setting": "Group 2, single agent", "result": "all animals were identified with progressive disease"}, {"measurement": "statistical significance of anti-tumor effect", "setting": "Groups 2, 4, 6", "result": "did not produce a statistically significant (p>0.05) anti-tumor effect"}, {"measurement": "regressions or tumor free survivors", "setting": "Groups 2-6", "result": "no regressions or tumor free survivors"}, {"measurement": "median time to evaluation size (750 mm^3) from the start of dosing", "setting": "Groups 2-6: GMI-1359 40 mg/kg IP QDx20 (Days 3-22), antibody 10 mg/kg IP Days 3,6,10,13,17", "result": 18.4, "unit": "days"}, {"measurement": "median post Day 9 tumor volume doubling time", "setting": "Groups 2-6: GMI-1359 40 mg/kg IP QDx20, antibody 10 mg/kg IP Days 3,6,10,13,17", "result": 3.3, "unit": "days"}, {"measurement": "incidence of progressive disease", "setting": "Groups 2-6, tumor burden >=2 fold that on Day 9", "result": 100, "unit": "%"}, {"measurement": "tumor growth delay (T-C)", "setting": "Groups 2-6 vs Group 1 saline, evaluation size 750 mm^3, GMI-1359 40 mg/kg IP QDx20, antibody 10 mg/kg IP Days 3,6,10,13,17", "result": 2.5, "unit": "days"}, {"measurement": "regressions or tumor free survivors", "setting": "Groups 8-12 (sampling groups)", "result": "no regressions or tumor free survivors"}, {"measurement": "incidence of progressive disease", "setting": "Groups 8-12 (sampling groups, euthanized Day 15)", "result": 100, "unit": "%"}, {"measurement": "median time to evaluation size", "setting": "Groups 8-12: GMI-1359 40 mg/kg IP QDx12 (Days 3-14), antibody 10 mg/kg IP Days 3,6,10,13, euthanized Day 15", "result": 14.3, "unit": "days"}, {"measurement": "median post Day 9 tumor volume doubling time", "setting": "Groups 8-12: GMI-1359 40 mg/kg IP QDx12, antibody 10 mg/kg IP Days 3,6,10,13, euthanized Day 15", "result": 1.8, "unit": "days"}, {"measurement": "Tumor Growth Delay, statistical comparison vs G1 (Vehicle (Saline))", "setting": "listed as groups G2-G6, time to evaluation size 750 mm^3", "result": "NS"}, {"measurement": "Tumor Growth Delay, statistical comparison vs G1 (Vehicle (Saline))", "setting": "[1]", "result": "NS"}, {"measurement": "Tumor Growth Delay, statistical comparison vs G2 (GMI-1359)", "setting": "[1]", "result": "NS"}, {"measurement": "Tumor Growth Delay, statistical comparison vs G3 (anti KLH; Rat IgG2b, LTF-2)", "setting": "[1]", "result": "NS"}, {"measurement": "Tumor Growth Delay, statistical comparison vs G4 (anti-mPD-L1)", "setting": "[1]", "result": "NS"}, {"measurement": "Tumor Growth Delay, statistical comparison vs G5 (GMI-1359 + anti KLH; Rat IgG2b, LTF-2)", "setting": "[1]", "result": "NS"}, {"measurement": "Tumor Growth Delay, statistical comparison vs G6 (GMI-1359 + anti-mPD-L1)", "setting": "[1]", "result": "NS"}, {"measurement": "Tumor Growth Delay, statistical comparison vs G7 (Vehicle (Saline))", "setting": "[1]", "result": "NS"}, {"measurement": "median time to progression", "setting": "[2]", "result": 14.5, "unit": "days"}, {"measurement": "progression free survival period", "setting": "[2]", "result": 5.5, "unit": "days"}]}]}
